Where “and” joins values, the source holds several entries; their conditions need not be identical. Equal values may be shown once. Read-outs that look alike come from different tables or passages of the source.
Legend:
[1] = tested on: human Cannabinoid Receptor 1 (CB1R); type: cell-based
[2] = molecular target: T1, human Cannabinoid Receptor 1 (CB1R) (Homo sapiens, UniProt P21554); type: cell-based
T1 construct: syn-prepro (synthetic yeast pre-pro secretion leader) (N); expressed in transfected cells; host or cells: Saccharomyces cerevisiae BY4741-derived strain (ste2, sst2, far1 knocked out); Gpa1-Gαi3 chimera

CB1R = molecular target: T2, CB1R (Homo sapiens, UniProt P21554); details: Banister et al., 2015; read-out: EC50 with CB1R in mouse AtT-20 neuroblastoma cells; cited from earlier work
T2 construct: host or cells: mouse AtT-20 cells
T2 sequence (P21554 whole entry): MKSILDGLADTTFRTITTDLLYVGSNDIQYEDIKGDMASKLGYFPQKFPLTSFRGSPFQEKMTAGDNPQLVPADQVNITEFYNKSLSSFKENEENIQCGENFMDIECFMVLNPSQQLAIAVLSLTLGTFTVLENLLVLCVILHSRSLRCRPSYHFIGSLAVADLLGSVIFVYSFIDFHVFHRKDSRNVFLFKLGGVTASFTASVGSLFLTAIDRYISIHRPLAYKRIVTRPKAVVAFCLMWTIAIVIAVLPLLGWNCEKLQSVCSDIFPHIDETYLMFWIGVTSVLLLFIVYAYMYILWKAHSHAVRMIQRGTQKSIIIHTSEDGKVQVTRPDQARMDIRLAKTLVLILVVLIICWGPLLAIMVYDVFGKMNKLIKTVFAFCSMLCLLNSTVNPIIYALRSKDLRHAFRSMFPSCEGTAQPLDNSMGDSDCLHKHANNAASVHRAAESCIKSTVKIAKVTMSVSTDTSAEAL

[3] = molecular target: T3, human cannabinoid receptor type II (CB2R) (Homo sapiens, UniProt P34972); experiment: cell-based; type: cell-based; parameters: Normalized Activity at 1 μM, CB2R; other: PINACA compounds, 1 μM; Normalized Activity at 1 μm, CB2R; other: 5-fluoro PB-22 isomers, 1 μm; other: MFα-CB2R, ST03 sterol strain, pH 5.8; activity against CB2R; other: at 10 nM, dose response; preference at CB2R of ADB-BINACA over AB-PINACA; signaling at CB2R in synthetic cannabinoid screen; fused on or other part: yeast mating factor alpha (MFα) pre-pro leader fused at the N-terminus as a trafficking signal; details: for EC50: MFα-CB2R, ST03 sterol strain, pH 5.8, read-out: EC50 at CB2R, dose response
T3 sequence (P34972 whole entry, the tested form may be a part): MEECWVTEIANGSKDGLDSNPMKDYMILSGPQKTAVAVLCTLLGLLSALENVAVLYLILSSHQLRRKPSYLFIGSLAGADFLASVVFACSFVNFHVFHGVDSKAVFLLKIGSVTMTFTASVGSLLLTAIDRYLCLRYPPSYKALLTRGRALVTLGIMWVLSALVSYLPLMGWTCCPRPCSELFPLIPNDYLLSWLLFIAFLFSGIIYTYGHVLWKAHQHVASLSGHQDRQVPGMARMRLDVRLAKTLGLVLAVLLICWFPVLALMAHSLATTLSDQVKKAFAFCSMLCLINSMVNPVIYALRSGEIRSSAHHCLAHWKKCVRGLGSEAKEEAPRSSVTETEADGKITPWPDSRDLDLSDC
Description: (§1) To efficiently transduce signals from the human machinery to the yeast pathway, the yeast 5 C-terminal residues of the G-alpha gene GPA1 were replaced with the sequence of the Gαi3 human G-alpha variant as previously described (Brown et al. 2000). ZsGreen1 was used to report on the activity of the pathway, integrating it into the genome in place of the pheromone-inducible Fig1 gene (FIG. 14A).
(§2) Yeast colonies were picked and grown overnight to saturation in pH 5.8 SD-His media in a 2.2 mL deep well plate (Axygen) grown in a plate-shaking incubator (30° C., 1000 rpm, 3 mm orbital). In the morning cultures were diluted 1:10 or 1:25 in SD-His media buffered to pH 7.1 with 100 mM MOPSO (unless otherwise specified). Ligands were added to the culture and incubated with shaking for 8 hours. Cells were then washed three times with ice-cold Tris buffer (pH 7) and diluted 1:20 for cytometry. All cytometry was performed on a Sony SA3800 spectral analyzer. Each sample was tested for 10,000 events, and read at a rate of 1,000 events per second. All assays as reported here were filtered only for singlet populations.

[4] = molecular target: T3, human cannabinoid receptor type II (CB2R); experiment: cell-based; type: cell-based; details: Ste2 signal sequence CB2R; read-out: EC50, dose response with CB2R
Description: as §1, §2

[5] = molecular target: T3, human cannabinoid receptor type II (CB2R); experiment: cell-based; type: cell-based; parameters: other: syn-prepro CB2R; "Syn=synthetic pre-pro"; fused on or other part: synthetic yeast pre-pro secretion leader (syn-prepro) fused at the N-terminus; details: EC50, dose response with CB2R, syn-prepro CB2R
Description: as §1, §2

[6] = molecular target: T3, human cannabinoid receptor type II (CB2R); experiment: cell-based; type: cell-based; parameters: other: MF alpha leader CB2R; "MF-α=mating factor alpha pre-pro"; fused on or other part: yeast mating factor alpha (MFα) pre-pro leader fused at the N-terminus; details: EC50, dose response with CB2R, MF alpha leader CB2R
Description: as §1, §2

[7] = molecular target: T3, human cannabinoid receptor type II (CB2R); experiment: cell-based; type: cell-based; parameters: MFα (mating factor alpha) pre-pro leader (N); expressed in transfected cells; host or cells: Saccharomyces cerevisiae BY4741-derived biosensor strain (Gpa1-Gαi3 chimera, ZsGreen reporter); sterol-modified strain ST03 for the screens, pH 5.8; details: EC50, dose response with CB2R, WT CB2R (no leader)
Description: as §1, §2

[8] = tested on: human cannabinoid receptor type II (CB2R); experiment: cell-based; type: cell-based; details: normalized activity at 1 μM, Table 3
Description: as §1, §2

## O=C(Oc1ccnc2ccccc12)c1cn(CCCCCF)c2ccccc12 [5-fluoro PB-22 4-hydroxyquinoline isomer]
[1]
  factor by which CB1 is favored over CB2: ~3

## CCCCCn1nc(C(=O)N[C@H](C(N)=O)C(C)C)c2ccccc21 [AB-PINACA]
[2]; compounds at 10 nM, 100 μM ACEA control
  relative fluorescence of the ACEA positive control at CB1R: strong signaling
[2]; compounds at 1 μM
  signaling at CB1R in synthetic cannabinoid screen relative to 100 μM ACEA positive control: maximal fluorescence
[2]; syn-prepro-Δ89-CB1R, wild type ergosterol strain
  EC50 at CB1R, synthetic cannabinoid dose response: low nanomolar range
[2]; syn-prepro-Δ89-CB1R, wild type ergosterol strain, read-out: EC50 at CB1R, synthetic cannabinoid dose response
  EC50: 0.0012 µM and 0.00121 µM
CB1R
  EC50: 0.0012 µM
[3]
  EC50: 0.107 µM
[3]; compounds at 1 μM
  signaling at CB2R in synthetic cannabinoid screen: high activity

## CCCCC/C=C\C/C=C\C/C=C\C/C=C\CCCC(=O)OC(CO)CO [2-AG, 2-arachidonoyl glycerol]
[4]
  EC50: 0.15 µM
[5]
  EC50: 1.54 µM
[6]
  EC50: 0.16 µM
[7]
  EC50: 0.07 µM

## CCCCC/C=C\C/C=C\C/C=C\C/C=C\CCCC(=O)NCCCl [ACEA]
[2]
  EC50, dose response with CB1R: low μM range
[1]
  drop in sensitivity of Δ89 constructs compared to full-length counterparts: 3.6-3.8 fold and 3.8 fold

## O=C(Oc1cccc2cnccc12)c1cn(CCCCCF)c2ccccc12 [5-fluoro PB-22 5-hydroxyisoquinoline isomer]
[8]
  fold by which CB2 is favored over CB1: roughly 2 fold
[3]
  EC50: 0.216 µM
